The source of these data is publication PMC10539501 (Nature Communications, 2023).

In general, Papp refers to the rate of passage across a membrane or cell layer, normalised by area and donor concentration. Higher therefore signals ready permeation. One may read the IC50 as the concentration at which inhibition is half-maximal. The half-life is how long it takes for the measured level to halve. Low readings indicate rapid decline, high ones slow decline. One may read the logD as lipophilicity at a set pH, counting ionised and neutral species. Higher therefore signals higher lipophilicity. What is called fraction unbound is free concentration divided by total concentration. A lower fraction unbound goes with little free substance.

Series [1] can be described thus: PAMPA passive permeability.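 Note: passive permeability across an artificial membrane in 96-well pre-coated PAMPA plates, which lack transporters and efflux systems.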 The note with it: Pe. The class given is in vitro ADME. In general terms: The PAMPA barrier holds no transporters, so it reflects passive diffusion.
Protocol: Encouraged by this, the passive permeability of the analogs was evaluated using an artificial membrane (PAMPA), which measures permeability of compounds in the absence of transporters and efflux systems[32].
96-well BD Corning® pre-coated PAMPA plates were used following the supplier’s protocol, details in Supplementary Information.
Series [2] is classed as physicochemical.
Description: Since reduced solvation of S also contributes to the lipophilicity of the thioamidated peptides, we sought to estimate the global desolvation of the macrocyclic peptides, which is affected by solvation of both N(H) and C(S). […] Thus, we evaluated the desolvation potential of the cyclic peptides by determining the distribution coefficients in heptane-ethylene glycol (logDh/e), a solvent system that provides an experimental estimate of desolvation or hydrogen bond potential[38].
The target of the next series is T1, SSTR2 (Homo sapiens, UniProt P30874).
T1 construct: expressed in transfected cells; host or cells: HEK-293T (CRL-3216)
Nature of the series: GloSensor assay, inhibition of forskolin-induced cAMP production. The class given is cell-based. Particulars: for IC50: read-out: IC50 sstr2; for binding against SSTR2 (in words): HEK293T cells expressing SSTR2, cAMP GloSensor.

The next series concerns the target T2, SSTR5 (Homo sapiens, UniProt P35346).
T2 construct: expressed in transfected cells; host or cells: HEK-293T (CRL-3216)
The description is as above. It is filed as cell-based. The note with it: for binding against SSTR5 (in words): HEK293T cells expressing SSTR5, cAMP GloSensor. How it is done: HEK-293T cells (CRL-3216 from ATCC, procured from NCCS, Pune) were co-transfected with human somatostatin receptor subtypes 2 & 5, plasmid cDNA, and cAMP biosensor (pGloSensorTM-22F plasmid; Promega Corp.) using PEImax. Ligand incubation was followed by the addition and incubation of forskolin (FSK) to the plate. Dose-dependent inhibition of forskolin-induced cAMP production by the peptide ligands was measured using a luminescence plate reader. An elaborate description of the assay setup has been provided in Supplementary Information.

Series [3] relates to growth hormone (GH) release. Nature of the series: In vivo inhibition of growth hormone release (sandwich ELISA). Particulars: for AUC 0_24: growth hormone AUC 0-24 h; for AUC 0_24 / AUC 0_48 / AUC 24_48: mean of n = 3; for AUC 0_48: growth hormone AUC 0-48 h; for AUC 24_48: growth hormone AUC 24-48 h. More on the design: species or system rats. On the procedure: In vivo inhibition of GH. Finally, we estimated the in vivo efficacy of 13 and the thioamidated analogs 13b, 13d, and 13e in suppressing the release of growth hormone (GH) post subcutaneous injection at 250 μg/kg dosage (Fig. 7e). 13a was also included as a negative control to assess its effect on GH release. The rats were bled from their orbital sinus, and the plasma GH levels were evaluated through sandwich ELISA. […] This correlates well with the high plasma concentration of 13 at the initial time points and a rapid drop within 2 h of s.c. administration (Fig. 7c). […] In contrast, the inhibitory effect lasts longer in 13b, 13d, and 13e showing a significant reduction in plasma GH levels within 24–48 h (Fig. 7h). […] The rapid drop in plasma concentration of 13 is responsible for its least in vivo efficacy.
Animal housing and acclimatization were done at Central Animal Facility, IISc Bangalore, as mentioned in the previous section, following protocols from the IEAC and CPCSEA. […] Samples were processed as discussed in Supplementary Information, and sandwich ELISA was performed to measure the growth hormone level in blood plasma. For acute toxicity, after peptide injection (s.c.), blood samples were collected on the 14th day for liver and kidney function tests.

A further series can be described thus: in vivo. The note with it: male, rat, sc; for half-life: Sprague-Dawley.
The nature of a further series: physchem. The note with it: pH 7.4.
A short description of series [4]: in vitro. The note with it: both, human, plasma.
Series [5] is described as follows: in vitro. The note with it: both, human, plasma. This is another data set of the same source.
The nature of series [6]: in vitro. The note with it: pig, simulated intestinal fluid.

Starred links: 1 amine or outer side, 2 acyl side, 3 side chain; linkers in the order of their positions; H or OH if unused. Non-standard residues stand in square brackets, D forms with d. Residues, ends and D or L forms follow the SMILES beside them. X10 = NCCCC[C@H](NC(=S)[C@@H](Cc1c[nH]c2ccccc12)N[*:1])C(=O)[*:2]; X12 = C[C@@H](O)[C@H](N[*:1])C(=S)N[C@@H](Cc1ccccc1)C(=O)[*:2]; X7 = C[C@@H](O)[C@H](NC(=S)[C@H](CCCCN)N[*:1])C(=O)[*:2]; X8 = O=C([C@H](Cc1ccccc1)NC(=S)[C@@H]1CCCN1[*:1])[*:2]

T1 sequence (P30874 whole entry): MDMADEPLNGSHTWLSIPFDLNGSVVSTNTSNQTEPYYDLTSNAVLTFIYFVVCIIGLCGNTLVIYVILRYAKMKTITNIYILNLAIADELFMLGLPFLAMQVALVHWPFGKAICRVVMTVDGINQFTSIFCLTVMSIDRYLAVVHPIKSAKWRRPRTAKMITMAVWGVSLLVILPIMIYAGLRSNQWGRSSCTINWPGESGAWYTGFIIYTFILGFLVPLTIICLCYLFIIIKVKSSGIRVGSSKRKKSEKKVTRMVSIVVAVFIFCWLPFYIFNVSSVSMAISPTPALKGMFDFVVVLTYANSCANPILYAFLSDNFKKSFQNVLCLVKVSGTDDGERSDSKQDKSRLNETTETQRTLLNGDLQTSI
T2 sequence (P35346 whole entry): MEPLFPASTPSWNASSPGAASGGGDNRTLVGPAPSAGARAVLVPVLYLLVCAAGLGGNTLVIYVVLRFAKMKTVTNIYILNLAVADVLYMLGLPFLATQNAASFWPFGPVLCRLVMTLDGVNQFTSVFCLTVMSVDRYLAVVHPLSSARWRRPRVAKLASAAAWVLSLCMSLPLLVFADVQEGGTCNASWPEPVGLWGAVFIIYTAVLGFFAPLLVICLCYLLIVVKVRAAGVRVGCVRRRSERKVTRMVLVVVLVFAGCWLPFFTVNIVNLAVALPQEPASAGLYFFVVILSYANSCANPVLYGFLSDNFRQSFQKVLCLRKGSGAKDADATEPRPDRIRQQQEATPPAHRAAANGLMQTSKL

As for `C[C@@H](O)[C@@H]1NC(=S)[C@H](CCCCN)NC(=O)[C@@H](Cc2c[nH]c3ccccc23)NC(=O)[C@H](Cc2ccccc2)NC(=O)[C@@H]2CCCN2C(=O)[C@H](Cc2ccccc2)NC1=O` [13b] (cyclo(FPF[dW][X7])), in [1], the Papp amounted to 2.92 ×10⁻⁶ cm/s. Also, the logD heptane ethylene glycol in series [2] is -0.83. Moreover, the IC50 on SSTR2 was found to be 15.6 ± 4.3 nM. This molecule also yielded a half-inhibitory concentration (IC50) against SSTR5 of 228 ± 41.9 nM. For the same molecule, in series [3], the “AUC 0_24” value was found to be 436 ng·h/mL, the “AUC 0_48” value was 1134 ng·h/mL and the “AUC 24_48” value was 668 ng·h/mL. The “inhibition of unstimulated GH release” value in [3] (rats, 250 μg/kg s.c., plasma GH by sandwich ELISA over 48 h) is reported as “significant inhibition”. In addition, the “t1/2 in SIF” value with pancreatin is reported as “over 72 h”. In the series “in vivo” (Sprague Dawley), this molecule returned a level at 0.5 h of 72 ng/mL and a level at 1 h of 44 ng/mL. This molecule also showed a half-life in the series “in vivo” of 0.6 ± 0.2 h. This molecule showed a logD in “physchem” of -0.64. Further, in the series “in vitro [4]”, the fraction unbound is 0.14. Also, the half-life in “in vitro [5]” is 32 h.

On to `C[C@@H](O)[C@@H]1NC(=O)[C@H](CCCCN)NC(=O)[C@@H](Cc2c[nH]c3ccccc23)NC(=O)[C@H](Cc2ccccc2)NC(=S)[C@@H]2CCCN2C(=O)[C@H](Cc2ccccc2)NC1=O` [13e] (cyclo(F[X8][dW]KT)), for which the Papp in series [1] was 1.92 ×10⁻⁶ cm/s. The logD heptane ethylene glycol in [2] is -1.16. For the same molecule, the IC50 on SSTR2 came to 19.2 ± 11.4 nM; against SSTR5, 232 ± 70.4 nM. In the series “in vivo” (Sprague Dawley), this molecule registered a level at 0.5 h of 38.1 ng/mL. This molecule also displayed a level at 1 h in the series “in vivo” (Sprague Dawley) of 57 ng/mL. Further, the half-life in the series “in vivo” was 0.6 ± 0.3 h; in “in vitro [5]”, 31 h. The same molecule came in with a logD in “physchem” of -0.72. This molecule also showed a fraction unbound in “in vitro [4]” of 0.09.

`C[C@@H](O)[C@@H]1NC(=O)[C@H](CCCCN)NC(=S)[C@@H](Cc2c[nH]c3ccccc23)NC(=O)[C@H](Cc2ccccc2)NC(=O)[C@@H]2CCCN2C(=O)[C@H](Cc2ccccc2)NC1=O` [13a] (cyclo(FPF[X10]T)) showed a Papp in series [1] of 2.45 ×10⁻⁶ cm/s. In series [2], the logD heptane ethylene glycol was -0.94. At SSTR2, the “binding against SSTR2 (in words)” value is on record as “complete loss in binding” and the IC50 was over 10000 nM. Further, at SSTR5, the IC50 was over 10000 nM and the “binding against SSTR5 (in words)” value is given as “complete loss in binding”. Further, in series [3], the “AUC 0_24” value amounted to 1085 ng·h/mL, the “AUC 0_48” value is 2274 ng·h/mL and the “AUC 24_48” value was found to be 1188 ng·h/mL. For the same molecule, in the series with pancreatin, the “t1/2 in SIF” value is “over 72 h”. In addition, in “in vivo” (Sprague Dawley), the level at 0.5 h stood at 146 ng/mL and the level at 1 h is 107 ng/mL. In “in vivo” (Sprague Dawley, 250 ug/kg), the level at 2 h came out at 40 ng/mL. In the series “in vivo”, this molecule had a half-life of 0.7 ± 0.1 h. Besides, in the series “physchem”, the logD is -0.65. The fraction unbound in “in vitro [4]” was 0.11. For the same molecule, in the series “in vitro [5]”, the half-life is 34 h.

In series [1], `C[C@@H](O)[C@@H]1NC(=O)[C@H](CCCCN)NC(=O)[C@@H](Cc2c[nH]c3ccccc23)NC(=O)[C@H](Cc2ccccc2)NC(=O)[C@@H]2CCCN2C(=O)[C@H](Cc2ccccc2)NC1=S` [13c] (cyclo(F[dW]K[X12]P)) returned an apparent permeability (Papp) of 0.96 ×10⁻⁶ cm/s. Further, the logD heptane ethylene glycol in series [2] was -1.18. Also, the “binding against SSTR2 (in words)” value on SSTR2 is “complete loss in binding”. Moreover, on SSTR5, the “binding against SSTR5 (in words)” value is given as “complete loss in binding”. The molecule further displayed a pH-dependent lipophilicity (logD) in “physchem” of -1.04. For the same molecule, the fraction unbound in the series “in vitro [4]” is 0.21. Also, the half-life in the series “in vitro [6]” was 2.5 h; in the series “in vitro [5]” it was 33 h.
